Patent US11981658B2, “Substituted aminopyridine compounds as EGFR inhibitors” (YUHAN CORPORATION, priority 2021, dated 2024)
Like-named read-outs stand apart in the source and are kept apart here.

Experiments:
[1] = biological target: EGFR Del19/T790M/C797S (Homo sapiens, UniProt P00533, C797S/DEL746-750/T790M); assay: Biochemical EGFR kinase inhibition assay (Lance Ultra TR-FRET), triple mutant del19/T790M/C797S
Outline: (§1)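 In this biochemical assay, phosphorylation after a one-hour room-temperature reaction was detected with europium-labelled anti-phosphopeptide antibody at 2 nM final concentration.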

[2] = biological target: EGFR L858R/T790M/C797S (Homo sapiens, UniProt P00533, C797S/L858R/T790M); assay: Biochemical EGFR kinase inhibition assay (Lance Ultra TR-FRET), triple mutant L858R/T790M/C797S
EGFR L858R/T790M/C797S, sequence (P00533 25-1210 T790M/C797S/L858R): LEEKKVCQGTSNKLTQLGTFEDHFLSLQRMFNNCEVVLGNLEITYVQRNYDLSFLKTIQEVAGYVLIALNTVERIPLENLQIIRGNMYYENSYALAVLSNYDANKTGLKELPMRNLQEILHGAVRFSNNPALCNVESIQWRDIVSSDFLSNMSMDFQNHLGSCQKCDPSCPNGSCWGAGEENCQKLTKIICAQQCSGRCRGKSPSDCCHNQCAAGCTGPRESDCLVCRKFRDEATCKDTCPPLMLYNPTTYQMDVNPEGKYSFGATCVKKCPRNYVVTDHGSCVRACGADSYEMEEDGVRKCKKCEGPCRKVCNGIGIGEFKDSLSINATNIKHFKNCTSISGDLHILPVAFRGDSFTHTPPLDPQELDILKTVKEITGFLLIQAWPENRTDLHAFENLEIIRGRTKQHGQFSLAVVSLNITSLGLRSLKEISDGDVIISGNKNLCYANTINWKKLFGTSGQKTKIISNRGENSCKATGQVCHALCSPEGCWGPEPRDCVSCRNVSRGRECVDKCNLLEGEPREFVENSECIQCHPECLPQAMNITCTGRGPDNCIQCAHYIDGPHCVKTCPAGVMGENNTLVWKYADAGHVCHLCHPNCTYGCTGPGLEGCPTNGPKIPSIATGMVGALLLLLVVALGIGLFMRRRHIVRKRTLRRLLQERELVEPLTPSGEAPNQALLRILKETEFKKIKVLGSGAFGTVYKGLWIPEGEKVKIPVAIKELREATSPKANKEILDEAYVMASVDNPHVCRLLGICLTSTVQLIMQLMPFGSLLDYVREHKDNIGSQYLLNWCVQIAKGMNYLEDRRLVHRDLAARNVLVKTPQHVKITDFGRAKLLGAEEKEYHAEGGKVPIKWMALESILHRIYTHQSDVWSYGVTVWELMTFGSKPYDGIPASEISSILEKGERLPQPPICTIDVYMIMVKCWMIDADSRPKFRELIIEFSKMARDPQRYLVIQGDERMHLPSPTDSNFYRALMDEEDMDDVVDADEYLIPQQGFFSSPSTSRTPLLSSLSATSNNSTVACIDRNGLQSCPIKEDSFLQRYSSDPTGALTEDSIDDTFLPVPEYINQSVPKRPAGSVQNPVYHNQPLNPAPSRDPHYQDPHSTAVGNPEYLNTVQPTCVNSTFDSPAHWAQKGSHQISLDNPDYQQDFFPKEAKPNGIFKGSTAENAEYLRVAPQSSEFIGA
Outline: as §1

[3] = biological target: EGFR Del19/C797S (Homo sapiens, UniProt P00533, C797S/DEL746-750); assay: Biochemical EGFR kinase inhibition assay (Lance Ultra TR-FRET), double mutant del19/C797S
EGFR Del19/C797S, sequence (P00533 with tags, fused parts or gaps DEL746-750/C797S): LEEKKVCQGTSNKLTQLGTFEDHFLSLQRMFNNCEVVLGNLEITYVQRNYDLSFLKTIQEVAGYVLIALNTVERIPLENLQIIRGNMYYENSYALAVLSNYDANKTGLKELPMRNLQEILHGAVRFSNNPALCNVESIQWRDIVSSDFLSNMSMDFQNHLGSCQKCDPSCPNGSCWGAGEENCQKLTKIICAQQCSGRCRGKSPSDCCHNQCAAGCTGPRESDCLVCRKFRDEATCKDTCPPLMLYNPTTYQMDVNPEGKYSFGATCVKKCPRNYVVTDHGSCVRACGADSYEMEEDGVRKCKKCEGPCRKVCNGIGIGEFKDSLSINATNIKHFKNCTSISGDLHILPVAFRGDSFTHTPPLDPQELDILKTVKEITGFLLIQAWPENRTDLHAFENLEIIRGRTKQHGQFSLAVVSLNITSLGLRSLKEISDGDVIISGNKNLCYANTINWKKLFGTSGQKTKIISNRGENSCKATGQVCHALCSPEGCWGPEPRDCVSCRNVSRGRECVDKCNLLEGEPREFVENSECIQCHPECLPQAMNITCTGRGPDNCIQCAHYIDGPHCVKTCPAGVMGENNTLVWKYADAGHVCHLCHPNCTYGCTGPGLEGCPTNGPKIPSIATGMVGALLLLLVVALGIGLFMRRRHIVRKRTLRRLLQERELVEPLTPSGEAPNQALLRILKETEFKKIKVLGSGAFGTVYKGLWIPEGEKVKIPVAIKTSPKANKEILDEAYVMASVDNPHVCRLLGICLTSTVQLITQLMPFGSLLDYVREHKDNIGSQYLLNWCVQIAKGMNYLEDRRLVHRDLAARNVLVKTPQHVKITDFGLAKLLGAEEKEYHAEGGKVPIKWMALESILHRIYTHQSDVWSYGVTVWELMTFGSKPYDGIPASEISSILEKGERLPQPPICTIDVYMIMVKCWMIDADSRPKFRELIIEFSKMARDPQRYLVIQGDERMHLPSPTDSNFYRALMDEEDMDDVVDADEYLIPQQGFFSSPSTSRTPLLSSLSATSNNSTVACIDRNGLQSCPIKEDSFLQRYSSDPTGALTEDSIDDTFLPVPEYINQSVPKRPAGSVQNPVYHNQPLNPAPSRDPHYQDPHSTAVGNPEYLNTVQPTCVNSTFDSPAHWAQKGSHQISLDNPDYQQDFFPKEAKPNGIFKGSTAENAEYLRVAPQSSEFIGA
Outline: as §1

[4] = biological target: EGFR L858R/C797S (Homo sapiens, UniProt P00533, C797S/L858R); assay: Biochemical EGFR kinase inhibition assay (Lance Ultra TR-FRET), double mutant L858R/C797S
EGFR L858R/C797S, sequence (P00533 25-1210 C797S/L858R): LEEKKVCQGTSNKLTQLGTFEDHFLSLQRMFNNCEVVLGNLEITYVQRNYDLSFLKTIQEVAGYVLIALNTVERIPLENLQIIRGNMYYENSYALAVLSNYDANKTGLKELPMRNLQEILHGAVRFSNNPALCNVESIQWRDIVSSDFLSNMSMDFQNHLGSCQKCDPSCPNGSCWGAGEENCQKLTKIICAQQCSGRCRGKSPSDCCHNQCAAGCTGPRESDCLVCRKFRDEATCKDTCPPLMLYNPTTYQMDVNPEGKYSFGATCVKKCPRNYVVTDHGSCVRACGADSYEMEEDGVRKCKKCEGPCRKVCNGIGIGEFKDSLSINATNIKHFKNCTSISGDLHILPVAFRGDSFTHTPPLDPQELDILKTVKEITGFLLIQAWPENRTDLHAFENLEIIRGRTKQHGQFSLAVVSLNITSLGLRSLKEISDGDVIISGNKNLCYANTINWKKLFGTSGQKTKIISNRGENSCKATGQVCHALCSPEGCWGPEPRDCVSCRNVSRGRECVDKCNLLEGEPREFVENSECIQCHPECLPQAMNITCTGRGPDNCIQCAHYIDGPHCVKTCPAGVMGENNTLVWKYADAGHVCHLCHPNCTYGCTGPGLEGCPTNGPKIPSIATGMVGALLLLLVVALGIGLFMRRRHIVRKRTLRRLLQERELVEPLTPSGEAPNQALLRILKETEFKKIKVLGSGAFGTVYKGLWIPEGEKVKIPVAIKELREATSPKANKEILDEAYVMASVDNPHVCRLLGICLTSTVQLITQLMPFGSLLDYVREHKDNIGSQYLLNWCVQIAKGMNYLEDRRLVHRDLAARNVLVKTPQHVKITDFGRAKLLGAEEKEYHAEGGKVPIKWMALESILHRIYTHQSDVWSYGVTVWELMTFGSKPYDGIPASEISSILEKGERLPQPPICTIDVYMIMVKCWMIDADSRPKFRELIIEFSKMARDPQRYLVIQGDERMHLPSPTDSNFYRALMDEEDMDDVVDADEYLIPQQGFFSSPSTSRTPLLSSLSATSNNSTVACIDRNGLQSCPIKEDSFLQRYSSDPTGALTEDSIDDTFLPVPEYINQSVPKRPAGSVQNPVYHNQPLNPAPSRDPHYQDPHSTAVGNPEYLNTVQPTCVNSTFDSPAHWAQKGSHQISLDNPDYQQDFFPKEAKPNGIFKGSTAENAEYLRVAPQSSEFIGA
Outline: as §1

[5] = biological target: EGFR wildtype (WT) (Homo sapiens, UniProt P00533); assay: Biochemical EGFR kinase inhibition assay (Lance Ultra TR-FRET), wildtype
Outline: as §1

[6] = IC50 Del19/T790M/C797S (nM), 100 μM ATP
[7] = Km ATP, read-out: IC50 Del19/T790M/C797S (nM), Km ATP
[8] = IC50 L858R/T790M/C797S (nM), 100 μM ATP
[9] = Km ATP, read-out: IC50 L858R/T790M/C797S (nM), Km ATP
[10] = IC50 Del19/C797S (nM), 100 μM ATP
[11] = Km ATP, read-out: IC50 Del19/C797S (nM), Km ATP
[12] = IC50 L858R/C797S (nM), 100 μM ATP
[13] = Km ATP, read-out: IC50 L858R/C797S (nM), Km ATP
[14] = Km ATP, read-out: IC50 WT (nM), Km ATP

EGFR Del19/T790M/C797S, sequence (P00533 with tags, fused parts or gaps DEL746-750/T790M/C797S): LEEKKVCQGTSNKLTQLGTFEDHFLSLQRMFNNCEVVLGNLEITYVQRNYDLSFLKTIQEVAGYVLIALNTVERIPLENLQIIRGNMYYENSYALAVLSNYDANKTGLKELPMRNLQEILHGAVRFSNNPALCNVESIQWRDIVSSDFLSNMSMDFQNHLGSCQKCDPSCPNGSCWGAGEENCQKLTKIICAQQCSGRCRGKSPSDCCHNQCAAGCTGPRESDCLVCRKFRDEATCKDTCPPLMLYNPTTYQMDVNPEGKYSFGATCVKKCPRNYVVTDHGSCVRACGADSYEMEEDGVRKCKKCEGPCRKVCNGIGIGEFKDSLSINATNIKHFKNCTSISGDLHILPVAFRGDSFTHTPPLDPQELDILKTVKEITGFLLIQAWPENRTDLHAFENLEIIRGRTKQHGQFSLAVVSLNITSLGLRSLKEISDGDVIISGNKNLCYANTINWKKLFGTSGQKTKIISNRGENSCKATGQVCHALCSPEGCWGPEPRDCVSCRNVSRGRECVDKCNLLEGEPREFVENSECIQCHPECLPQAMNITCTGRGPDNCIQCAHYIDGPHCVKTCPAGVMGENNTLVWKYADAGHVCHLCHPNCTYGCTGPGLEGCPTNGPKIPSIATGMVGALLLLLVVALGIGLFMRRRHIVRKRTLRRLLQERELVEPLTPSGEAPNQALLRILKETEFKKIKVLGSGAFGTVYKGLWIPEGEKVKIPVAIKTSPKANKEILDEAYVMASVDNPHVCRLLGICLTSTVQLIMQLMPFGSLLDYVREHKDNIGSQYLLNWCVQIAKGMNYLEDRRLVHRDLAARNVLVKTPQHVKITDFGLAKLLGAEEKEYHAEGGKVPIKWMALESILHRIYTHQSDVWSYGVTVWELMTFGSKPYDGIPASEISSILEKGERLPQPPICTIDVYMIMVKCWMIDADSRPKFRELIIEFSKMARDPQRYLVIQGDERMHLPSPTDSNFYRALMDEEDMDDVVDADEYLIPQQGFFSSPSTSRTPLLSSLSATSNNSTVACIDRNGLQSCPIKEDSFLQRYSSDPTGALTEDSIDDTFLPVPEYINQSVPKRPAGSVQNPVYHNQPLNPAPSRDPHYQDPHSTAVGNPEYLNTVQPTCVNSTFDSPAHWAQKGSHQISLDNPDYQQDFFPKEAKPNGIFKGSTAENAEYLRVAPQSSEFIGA

SMILES | IC50 [1, 6] [nM] | IC50 [1, 7] [nM] | IC50 [2, 8] [nM] | IC50 [2, 9] [nM] | IC50 [3, 10] [nM] | IC50 [3, 11] [nM] | IC50 [4, 12] [nM] | IC50 [4, 13] [nM] | IC50 ([5]; IC50 WT (nM), 100 μM ATP) [nM] | IC50 [5, 14] [nM]
CC1(O)CCN(c2cc(Nc3ccnc(-c4cnn(S(=O)(=O)C5CC5)c4)n3)ncc2C#CC2CCS(=O)(=O)C2)CC1 (centres unmarked) [Example 429, 3-((6-((2-(1-(Cyclopropylsulfonyl)-1H-pyrazol-4-yl)pyrimidin-4-yl)amino)-4-(4-hydroxy-4-methylpiperidin-1-yl)pyridin-3-yl)ethynyl)tetrahydrothiophene 1,1-dioxide] | 0.5 | 0.2 | 0.3 | 0.2 | 3.4 | 4.9 | 39.7 | 4.8 | 6020 | 38.9
CC1OCCC1C#Cc1cnc(Nc2ccnc(-c3cnn(S(=O)(=O)C4CC4)c3)n2)cc1NC1CCC(CO)CC1 (centres unmarked) [Example 430, ((1s,4s)-4-((2-((2-(1-(Cyclopropylsulfonyl)-1H-pyrazol-4-yl)pyrimidin-4-yl)amino)-5-((2-methyltetrahydrofuran-3-yl)ethynyl)pyridin-4-yl)amino)cyclohexyl)methanol] | 1 | 0.6 | 0.9 | 0.3 | 3.8 | 1.3 | 107 | 4.3 | 7480 | 6.9
CC1OCCC1C#Cc1cnc(Nc2ccnc(-c3cnn(S(=O)(=O)C4CC4)c3)n2)cc1NCC1CCC(O)CC1 (centres unmarked) [Example 431, (1 r,4r)-4-(((2-((2-(1-(Cyclopropylsulfonyl)-1H-pyrazol-4-yl)pyrimidin-4-yl)amino)-5-((2-methyltetrahydrofuran-3-yl)ethynyl)pyridin-4-yl)amino)methyl)cyclohexan-1-ol] | 2.7 | 1.2 | 4.7 | 1 | 78.1 | – | 2090 | – | > 10000 | –
CC1OCCC1C#Cc1cnc(Nc2ccnc(-c3cnn(S(=O)(=O)C4CC4)c3)n2)cc1N1CCC(C)(O)CC1 (centres unmarked) [Example 432, 1-(2-((2-(1-(Cyclopropylsulfonyl)-1H-pyrazol-4-yl)pyrimidin-4-yl)amino)-5-((2-methyltetrahydrofuran-3-yl)ethynyl)pyridin-4-yl)-4-methylpiperidin-4-ol] | 0.6 | 0.4 | 0.7 | 0.3 | 5.2 | 3.1 | 141 | 5.3 | > 10000 | 11.4
CC1OCCC1C#Cc1cnc(Nc2ccnc(-c3cnn(S(=O)(=O)C4CC4)c3)n2)cc1NC1CCC(O)CC1 (centres unmarked) [Example 433, (1 s,4s)-4-((2-((2-(1-(cyclopropylsulfonyl)-1H-pyrazol-4-yl)pyrimidin-4-yl)amino)-5-((2-methyltetrahydrofuran-3-yl)ethynyl)pyridin-4-yl)amino)cyclohexan-1-ol] | 0.5 | 0.4 | 0.7 | 0.2 | 3.2 | 1 | 90.8 | 4 | 8720 | 7.7
O=S(=O)(C1CC1)n1cc(-c2nccc(Nc3cc(NC4CCC(CO)CC4)c(C#CC4(F)CCOC4)cn3)n2)cn1 (centres unmarked) [Example 434, ((1s,4s)-4-((2-((2-(1-(Cyclopropylsulfonyl)-1H-pyrazol-4-yl)pyrimidin-4-yl)amino)-5-((3-fluorotetrahydrofuran-3-yl)ethynyl)pyridin-4-yl)amino)cyclohexyl)methanol] | 0.3 | 0.4 | 0.5 | 0.2 | 5.2 | 2.3 | 125 | 2.4 | 8890 | 21.2
CC1(O)CCN(c2cc(Nc3ccnc(-c4cnn(S(=O)(=O)C5CC5)c4)n3)ncc2C#CC2(F)CCOC2)CC1 (centres unmarked) [Example 435, 1-(2-((2-(1-(Cyclopropylsulfonyl)-1H-pyrazol-4-yl)pyrimidin-4-yl)amino)-5-((3-fluorotetrahydrofuran-3-yl)ethynyl)pyridin-4-yl)-4-methylpiperidin-4-ol] | 0.2 | 0.2 | 0.3 | 0.1 | 2.9 | 1.3 | 66.6 | 2 | 8720 | 14.2
O=S(=O)(C1CC1)n1cc(-c2nccc(Nc3cc(NC4CCC(O)CC4)c(C#CC4(F)CCOC4)cn3)n2)cn1 (centres unmarked) [Example 436, (1s,4s)-4-((2-((2-(1-(Cyclopropylsulfonyl)-1H-pyrazol-4-yl)pyrimidin-4-yl)amino)-5-((3-fluorotetrahydrofuran-3-yl)ethynyl)pyridin-4-yl)amino)cyclohexan-1-ol] | 0.2 | 0.1 | 0.3 | 0.1 | 3.1 | 1.7 | 111 | 2.5 | > 10000 | 12.5
CC1(CO)CCN(c2cc(Nc3ccnc(-c4cnn(S(=O)(=O)C5CC5)c4)n3)ncc2C#CC2CCS(=O)(=O)C2)CC1 (centres unmarked) [Example 437, 3-((6-((2-(1-(Cyclopropylsulfonyl)-1H-pyrazol-4-yl)pyrimidin-4-yl)amino)-4-(4-(hydroxymethyl)-4-methylpiperidin-1-yl)pyridin-3-yl)ethynyl)tetrahydrothiophene 1,1-dioxide] | 0.1 | 0.1 | 0.1 | 0.1 | 1.3 | 0.6 | 39.3 | 0.8 | > 10000 | 3.7
CC1OCCC1C#Cc1cnc(Nc2ccnc(-c3cnn(S(=O)(=O)C4CC4)c3)n2)cc1N1CCC(C)(CO)CC1 (centres unmarked) [Example 438, (1-(2-((2-(1-(Cyclopropylsulfonyl)-1H-pyrazol-4-yl)pyrimidin-4-yl)amino)-5-((2-methyltetrahydrofuran-3-yl)ethynyl)pyridin-4-yl)-4-methylpiperidin-4-yl)methanol] | 0.3 | 0.3 | 0.7 | 0.2 | 3.3 | 1.7 | 85.5 | 1.9 | 6420 | 5.8
O=S(=O)(C1CC1)n1cc(-c2nccc(Nc3cc(N4CCC[C@H](O)C4)c(C#Cc4cnn(C(F)(F)F)c4)cn3)n2)cn1 [Example 439, (S)-1-(2-((2-(1-(Cyclopropylsulfonyl)-1H-pyrazol-4-yl)pyrimidin-4-yl)amino)-5-((1-(trifluoromethyl)-1H-pyrazol-4-yl)ethynyl)pyridin-4-yl)piperidin-3-ol] | 1.7 | 2.1 | 3.7 | 1.3 | 24.5 | 12.5 | 62.7 | 11.1 | > 10000 | 122
O=S(=O)(C1CC1)n1cc(-c2nccc(Nc3cc(N4CCC[C@@H](O)C4)c(C#Cc4cnn(CCF)c4)cn3)n2)cn1 [Example 440, (R)-1-(2-((2-(1-(Cyclopropylsulfonyl)-1H-pyrazol-4-yl)pyrimidin-4-yl)amino)-5-((1-(2-fluoroethyl)-1H-pyrazol-4-yl)ethynyl)pyridin-4-yl)piperidin-3-ol] | 0.5 | 0.5 | 1.3 | 0.5 | 9.7 | 7.6 | 61.5 | 10.3 | > 10000 | 48.4
O=C(c1ccc(C#Cc2cnc(Nc3ccnc(-c4cnn(S(=O)(=O)C5CC5)c4)n3)cc2N[C@H]2CC[C@@H](CO)CC2)cc1)N1CCC(O)CC1 [Example 441, (4-((6-((2-(1-(Cyclopropylsulfonyl)-1H-pyrazol-4-yl)pyrimidin-4-yl)amino)-4-(((ls, 4s)-4-(hydroxymethyl)cyclohexyl)amino)pyridin-3-yl)ethynyl)phenyl)(4-hydroxypiperidin-1-yl)methanone] | 2.2 | 2.1 | 0.8 | 0.5 | 2.3 | – | 47.1 | – | > 10000 | –
CC1(O)CCN(c2cc(Nc3ccnc(-c4cnn(S(=O)(=O)C5CC5)c4)n3)ncc2C#Cc2ccc(C(=O)N3CCC(O)CC3)cc2)CC1 [Example 442, (4-((6-((2-(1-(Cyclopropylsulfonyl)-1H-pyrazol-4-yl)pyrimidin-4-yl)amino)-4-(4-hydroxy-4-methylpiperidin-1-yl)pyridin-3-yl)ethynyl)phenyl)(4-hydroxypiperidin-1-yl)methanone] | 0.9 | 0.7 | 0.3 | 0.1 | 1.3 | – | 20.3 | – | 9930 | –
